Measured values as given in patent US20230348453A1, “HALOGENATED-HETEROARYL AND OTHER HETEROCYCLIC KINASE INHIBITORS, AND USES THEREOF” (iOmx Therapeutics AG, priority 2020, published 2023).
Read-outs that look alike come from different tables or passages of the source.

Columns and labels:
[1] = target: ABL1 wt (Homo sapiens (Human), UniProt P00519); format: biochemical
[2] = target: SRC (GST-HIS-tag) (Homo sapiens (Human), UniProt P12931); format: biochemical
[3] = target: SIK1 (Homo sapiens (Human), UniProt P57059); conditions: read-out: SIK1 IC50
[4] = target: SIK3 (Homo sapiens (Human), UniProt Q9Y2K2); conditions: read-out: SIK3 IC50
[5] = microsomes
[6] = microsomes; remark: listed apart in the source
[7] = Human plasma-protein binding
[8] = Murine plasma protein binding
[9] = target: SIK2 (Homo sapiens (Human), UniProt Q9H0K1); conditions: read-out: SIK2 IC50
[10] = system: panel of AML cell lines; assay: Lysis of a panel of AML cell lines; format: cell-based; conditions: cell lines that have phosphorylated MEF2C protein
[11] = system: KASUMI-1 cell line; assay: Cell killing of pMEF2C-positive KASUMI-1 cell line; format: cell-based
[12] = system: HEL cell line; assay: Cell killing of pMEF2C-negative HEL cell line; format: cell-based
[13] = target: CSF1R (Homo sapiens (Human), UniProt P07333); format: biochemical; conditions: Kinase Profiler
Chain of CSF1R (P07333 20-972 limits assumed): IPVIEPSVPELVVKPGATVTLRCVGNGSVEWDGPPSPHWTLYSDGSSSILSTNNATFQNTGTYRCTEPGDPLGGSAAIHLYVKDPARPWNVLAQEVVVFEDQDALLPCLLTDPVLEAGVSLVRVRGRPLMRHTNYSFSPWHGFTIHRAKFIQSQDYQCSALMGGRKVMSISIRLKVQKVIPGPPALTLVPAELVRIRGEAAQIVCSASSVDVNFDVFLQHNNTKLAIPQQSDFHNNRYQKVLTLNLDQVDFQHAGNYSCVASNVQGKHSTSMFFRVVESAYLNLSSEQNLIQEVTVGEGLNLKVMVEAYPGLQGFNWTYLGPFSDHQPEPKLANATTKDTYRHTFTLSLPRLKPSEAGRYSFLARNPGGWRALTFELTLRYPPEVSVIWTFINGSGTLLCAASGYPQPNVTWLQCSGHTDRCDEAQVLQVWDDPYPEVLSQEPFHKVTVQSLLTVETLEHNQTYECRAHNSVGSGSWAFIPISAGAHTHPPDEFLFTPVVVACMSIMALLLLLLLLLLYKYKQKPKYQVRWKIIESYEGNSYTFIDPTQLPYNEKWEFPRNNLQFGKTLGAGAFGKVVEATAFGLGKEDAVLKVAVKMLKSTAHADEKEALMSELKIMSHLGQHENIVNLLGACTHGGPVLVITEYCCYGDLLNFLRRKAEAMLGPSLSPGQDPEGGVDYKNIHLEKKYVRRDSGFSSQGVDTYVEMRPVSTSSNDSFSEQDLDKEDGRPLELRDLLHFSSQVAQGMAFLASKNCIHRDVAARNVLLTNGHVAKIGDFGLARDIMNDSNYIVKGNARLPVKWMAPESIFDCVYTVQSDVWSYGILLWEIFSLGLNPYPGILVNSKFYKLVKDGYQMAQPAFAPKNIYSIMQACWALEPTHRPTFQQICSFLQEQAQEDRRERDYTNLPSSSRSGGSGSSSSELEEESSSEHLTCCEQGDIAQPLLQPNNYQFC

[14] = target: HCK (Homo sapiens (Human), UniProt P08631); format: biochemical; conditions: Kinase Profiler
[15] = Human hepatocyte stability; format: in vitro ADME; conditions: human, hepatocytes
[16] = Mouse hepatocyte stability; format: in vitro ADME; conditions: hepatocytes
[17] = Plasma stability in human plasma; format: in vitro ADME; conditions: read-out: plasma stability T1/2
[18] = Plasma stability in mouse plasma; format: in vitro ADME; conditions: read-out: plasma stability T1/2
[19] = system: KASUMI-1 cell line; assay: Growth inhibition (GI50) of AML cell lines; format: cell-based
[20] = system: MV4-11 cell line; assay: Growth inhibition (GI50) of AML cell lines; format: cell-based; conditions: Homo sapiens, MV4-11, read-out: GI50 against MV4-11 cell line
[21] = system: HEL cell line; assay: Growth inhibition (GI50) of AML cell lines; format: cell-based; conditions: Homo sapiens, pMEF2C-negative, read-out: GI50 against HEL cell line
[22] = in vivo
[23] = in vivo; conditions: male, CD1, mouse, po, 30 mg/kg
[24] = in vitro; conditions: human, microsomes
[25] = in vitro; conditions: mouse, microsomes
[26] = in vitro; conditions: dog, MDCK, MDCK-wild type cells
[27] = target: MDR1 (P-gp) (Homo sapiens (Human), UniProt P08183); assay: in vitro; conditions: dog, MDCK-MDR1, MDCK-MDR1 cells
[28] = Metabolite profile in hepatocytes / in vivo
From the text: Metabolites are identified using high-resolution mass spectrometry.

[29] = system: MC38 colorectal carcinoma tumours; assay: MC38 syngeneic mouse tumour model (Example 8.1); conditions: MC38; 100 mg/Kg, BID po
[30] = system: HDAC4 phosphorylation in PANC-1 cells; assay: HDAC4 phosphorylation (Meso Scale Discovery assay); conditions: 10 ng/mL rHuTNF
[31] = system: MC38 murine tumour cell line; assay: TNF-sensitised cell viability assay (CellTiter-Glo); conditions: Mus musculus
[32] = system: HCT116 cells; assay: as above; conditions: Homo sapiens, HCT-116, read-out: HCT116 IC50 (at 10 ng/ml rHuTNF)
[33] = system: NFKB activity in PANC-1 cells; assay: TNF-induced NFKB activity (NFKB-dependent luciferase reporter); conditions: 10 ng/ml rHuTNF
[34] = system: NFKB activity in MC38 cells; assay: as above; conditions: 10 ng/ml rMuTNF
[35] = system: K562 human CML tumours; conditions: PO once a day for 10 days, 5-days-on and 2-days off; cited from earlier work
[36] = system: AML; conditions: administered intraperitoneally; cited from earlier work
[37] = in vivo; cited from earlier work
[38] = system: MPAL-associated AML cell lines (including MOLM-13 and MV4-11); conditions: chemical inhibition of SIK3; cited from earlier work
[39] = mouse, in vivo, po, 30 mg/kg
[40] = target: RET (Homo sapiens (Human), UniProt P07949); assay: biochemical; conditions: read-out: RET residual activity (%) at 1 μM, 1 μM
Chain of RET (P07949 29-1114 limits assumed): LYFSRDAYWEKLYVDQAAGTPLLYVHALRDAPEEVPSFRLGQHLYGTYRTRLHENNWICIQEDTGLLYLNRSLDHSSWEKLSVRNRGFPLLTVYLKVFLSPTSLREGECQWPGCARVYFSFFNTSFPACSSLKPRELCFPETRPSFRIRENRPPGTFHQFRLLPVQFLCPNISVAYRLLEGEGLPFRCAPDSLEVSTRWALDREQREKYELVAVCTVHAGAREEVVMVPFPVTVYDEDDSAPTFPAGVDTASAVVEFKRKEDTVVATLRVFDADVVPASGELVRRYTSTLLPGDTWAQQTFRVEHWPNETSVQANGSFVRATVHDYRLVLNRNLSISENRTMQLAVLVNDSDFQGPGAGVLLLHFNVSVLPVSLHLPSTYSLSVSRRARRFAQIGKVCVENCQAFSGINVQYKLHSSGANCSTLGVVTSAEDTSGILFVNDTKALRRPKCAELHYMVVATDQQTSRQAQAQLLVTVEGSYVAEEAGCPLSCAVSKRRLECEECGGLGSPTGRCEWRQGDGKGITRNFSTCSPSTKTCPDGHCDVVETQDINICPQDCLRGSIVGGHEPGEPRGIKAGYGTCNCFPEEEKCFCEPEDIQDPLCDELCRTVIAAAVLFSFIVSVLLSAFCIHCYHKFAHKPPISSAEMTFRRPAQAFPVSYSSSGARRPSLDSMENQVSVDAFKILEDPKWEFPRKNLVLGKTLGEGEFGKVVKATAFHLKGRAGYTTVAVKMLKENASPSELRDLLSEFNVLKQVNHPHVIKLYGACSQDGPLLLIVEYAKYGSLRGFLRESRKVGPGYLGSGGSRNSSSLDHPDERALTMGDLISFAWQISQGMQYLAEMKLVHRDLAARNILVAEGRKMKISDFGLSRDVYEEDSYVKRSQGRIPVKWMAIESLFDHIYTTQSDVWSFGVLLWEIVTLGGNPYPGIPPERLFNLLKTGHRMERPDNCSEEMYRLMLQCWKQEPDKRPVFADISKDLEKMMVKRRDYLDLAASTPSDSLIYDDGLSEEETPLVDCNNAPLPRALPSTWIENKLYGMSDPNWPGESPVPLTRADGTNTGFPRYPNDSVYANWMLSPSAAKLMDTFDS

[41] = target: BRAF (Homo sapiens (Human), UniProt P15056); assay: biochemical; conditions: read-out: BRAF residual activity (%) at 1 μM, 1 μM
[42] = Full pharmacokinetic study in mice; conditions: for half-life: male, CD1, mouse, plasma
[43] = Screening PK in mice after 30 mg/kg po; conditions: plasma, po, 30 mg/kg

Chain of ABL1 wt (P00519 118-535 limits assumed): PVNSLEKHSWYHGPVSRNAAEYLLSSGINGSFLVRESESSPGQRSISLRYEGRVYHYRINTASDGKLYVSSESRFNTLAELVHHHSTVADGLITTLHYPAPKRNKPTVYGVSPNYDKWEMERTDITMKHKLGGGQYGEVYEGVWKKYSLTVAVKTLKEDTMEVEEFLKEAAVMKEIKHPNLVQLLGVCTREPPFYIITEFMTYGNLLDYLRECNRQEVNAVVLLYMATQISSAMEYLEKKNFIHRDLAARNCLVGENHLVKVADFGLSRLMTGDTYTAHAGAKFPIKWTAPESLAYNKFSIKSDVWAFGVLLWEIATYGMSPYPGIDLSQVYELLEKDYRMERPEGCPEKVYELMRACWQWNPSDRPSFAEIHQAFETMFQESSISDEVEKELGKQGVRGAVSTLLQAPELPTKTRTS

## Cc1nc(Nc2ncc(C(=O)Nc3c(C)noc3C)s2)cc(N2CCN(CCO)CC2)n1 [Compound C9]
[1]
  IC50: 0.0274 µM
[2]
  IC50: 0.00644 µM
[3]
  IC50: 0.169 µM
[4]
  IC50: 0.8 µM
[5]
  Human liver microsomal stability, Intrinsic clearance: <1.4e+07 µL/min/mg
  Human liver microsomal stability, % Remaining at 40 min (%): 89%
[6]
  Mouse liver microsomal stability, Intrinsic clearance (L/min/mg): <14
  Mouse liver microsomal stability, % Remaining at 40 min (%): 83%
[7]; Table 5A
  Human plasma-protein binding, Percentage unbound (%): 6%
[8]; Table 5A
  Murine plasma protein binding, Percentage unbound (%): 44%
[9]
  IC50: 0.232 µM

## Cc1nc(Nc2ncc(C(=O)Nc3c(C)csc3Cl)s2)cc(N2CCN(CCO)CC2)n1 [Compound C7, N-(2-chloro-4-methylthiophen-3-yl)-2-((6-(4-(2-hydroxyethyl)piperazin-1-yl)-2-methylpyrimidin-4-yl)amino)thiazole-5-carboxamide]
[10]
  lysis of AML cell lines: strong lysis
[11]
  cell killing: highly potent cell killing
[12]
  cell killing: low cell killing
[13]
  CSF1R residual activity: less than 1%
[14]
  HCK residual activity: less than 1%
[15]; read-out: Human hepatocyte stability, Half-life
  half-life: 0.9 h
[15]; read-out: Human hepatocyte stability, Intrinsic clearance
  microsomal CLint: 26 µL/min/mg
[15]; read-out: half-life in the presence of human hepatocytes (converted)
  half-life: ~1 h
[16]
  half-life: 0.833 h
[16]; read-out: Mouse hepatocyte stability, Intrinsic clearance
  microsomal CLint: 28 µL/min/mg
[17]
  half-life: > 2.5 h
[18]
  half-life: > 2.5 h
[19]; Homo sapiens, Kasumi 1, read-out: GI50 against KASUMI-1 cell line, pMEF2C-positive
  GI50: ~0.002 µM
[19]; read-out: GI50 against KASUMI-1 cell line, pMEF2C-positive
  GI50: 0.0016 µM
[20]
  GI50: 0.48 µM
[21]
  GI50: ~5 µM
[5]
  Human liver microsomal stability, Intrinsic clearance: 2.53e+08 µL/min/mg
  Human liver microsomal stability, % Remaining at 40 min (%): 1%
[6]
  Mouse liver microsomal stability, % Remaining at 40 min (%): 10%
[22]; male, CD1, mouse, iv, 1 mg/kg
  % AUCextrap: 5.81%
[22]; male, CD1, mouse, po, 30 mg/kg
  % AUCextrap: 0.45%
  % AUCextrap, Free: 11.24%
  % AUCextrap, Total: 11.24%
  AUCinf (nM*h), Free: 58.79 nM·h
  AUClast (nM*h), Free: 52.07 nM·h
[22]; mouse, po, 30 mg/kg
  Rsq, Free: 0.99
  Rsq, Total: 0.99
BID by gavage, female C57BL/6, seven days
  tolerable dose: up to 100 mg/kg
Highest recommended dose, BID
  HRD in vivo @BID: 100 mg/kg
Highest recommended dose, QD
  HRD in vivo @QD: 100 mg/kg
[23]
  AUC(0-inf): 1310 nM·h
  AUC(0-t): 1160 nM·h
  Cmax: 0.474 µg/mL
  MRT last: 2.75 h
  half-life: 1.42 h
[24]
  half-life: 0.167 h
  microsomal CLint: 142 µL/min/mg
[25]
  half-life: 0.217 h
  microsomal CLint: 110 µL/min/mg
[26]; Mean Papp A > B (10^−6 cm/s)
  Papp: 90 nm/s
[27]; Mean Papp A > B (10^−6 cm/s)
  Papp: 20 nm/s
[7]; Table 5A
  Human plasma-protein binding, Percentage unbound (%): <1%
[7]; Table 5.1A
  Human plasma-protein binding, Percentage unbound (%): 2%
[7]; human
  recovery at 4 h: 75%
[8]; Table 5A
  Murine plasma protein binding, Percentage unbound (%): 5%
[8]; Table 5.1A
  Murine plasma protein binding, Percentage unbound (%): 3%
[8]; mouse
  recovery at 4 h: 87%
[28]
  quinone-imine reactive metabolite: not observed
[29]
  Body weight increase (%): 1.0%
  Non-treatment related death: 3/16
  Tumour growth inhibition (%): 78%
[30]; 3 h
  Inhibition of HDAC4 phosphorylation: +
[30]; 3 h (Table 9C)
  Inhibition of HDAC4 phosphorylation: +
[31]; MC-38, read-out: MC38 IC50 (at 100 ng/mL rMuTNF)
  IC50: < 0.2 µM
[31]; MC-38, read-out: mean EC50 of sensitising MC38 tumour cells to TNF-mediated killing
  EC50: ~0.15 µM
[32]
  IC50: < 0.1 µM
[33]; PANC-1 reporter cells
  Inhibition of NFKB activity (PANC-1): +
[33]; PANC-1 reporter cells (Table 9C)
  Inhibition of NFKB activity: +
[34]
  Inhibition of NFKB activity (MC38): +

## Cc1ccc(NC(=O)c2ccc(CN3CCN(C)CC3)cc2)cc1Nc1nccc(-c2cccnc2)n1 [imatinib]
[35]
  outcome in mice bearing K562 human CML tumours: failed to produce a comparative response

## COc1ccc(N2C(=O)N(c3c(C)cccc3Cl)Cc3cnc(Nc4ccc(C5CCN(C)CC5)cc4OC)nc32)nc1 [YKL-05-099]
[36]
  AML progression: supressed AML progression in-vivo

## Cc1cn(-c2cc(NC(=O)c3ccc(C)c(Nc4nccc(-c5cccnc5)n4)c3)cc(C(F)(F)F)c2)cn1 [nilotinib]
[37]
  terminal / elimination half-life: approximately 17 hours

## HG-9-91-01
[38]
  viability of AML cell lines: strongly decreases viability

## Cc1nc(Nc2ncc(C(=O)Nc3c(Cl)ccnc3C)s2)cc(N2CCN(CCO)CC2)n1 [Compound B3, N-(4-chloro-2-methylpyridin-3-yl)-2-((6-(4-(2-hydroxyethyl)piperazin-1-yl)-2-methylpyrimidin-4-yl)amino)thiazole-5-carboxamide]
[13]
  CSF1R residual activity: less than 1%
[14]
  HCK residual activity: less than 1%
[5]
  Human liver microsomal stability, Intrinsic clearance: 24 µL/min/mg
[6]
  Mouse liver microsomal stability, Intrinsic clearance (L/min/mg): 22 µL/min/mg
[39]
  Plasma concentration after 6 h: 0.029 µM
[22]; male, CD1, mouse, po, 30 mg/kg
  % AUCextrap, Total: 14%
[23]
  AUC(0-inf): 697 nM·h
[24]
  half-life: 0.967 h
[25]
  half-life: 1.03 h
[26]; Mean Papp A > B (10^−6 cm/s)
  Papp: 68 nm/s
[26]; Mean Papp B > B (10^−6 cm/s)
  Papp: 200 nm/s
[27]
  Papp: 200 nm/s
[27]; Mean Papp A > B (10^−6 cm/s)
  Papp: < 8 nm/s
[40]
  remaining activity at 1 µM: ~100%
[41]
  remaining activity at 1 µM: ~50%
[7]; Table 5A
  Human plasma-protein binding, Percentage unbound (%): 7%
[7]; Table 5.1A
  Human plasma-protein binding, Percentage unbound (%): 7%
[8]; Table 5A
  Murine plasma protein binding, Percentage unbound (%): 11%
[8]; Table 5.1A
  Murine plasma protein binding, Percentage unbound (%): 11%
[42]; iv, 1 mg/kg
  half-life: 0.2 h
[42]; po, 30 mg/kg
  half-life: 2.4 h
[42]; mouse, in vivo
  Cmax (ng/ml), Total: 99 ng/mL
  t1/2 (h), Free: 2.4 h
[43]; CD1, mouse, Free concentration (nM) at 2 hours, mice, 30 mg/kg po, 2 hours
  concentration at 2 h: 13 nM
[43]; CD1, mouse, Free concentration (nM) at 7 hours, mice, 30 mg/kg po, 7 hours
  concentration at 7 h: 3 nM
[43]; mouse
  Cmax at 2 h: 0.056 µg/mL
